# Test results: patent US20200030305A1, “LOCAL ANESTHETIC-CONTAINING ACIDIC EMULSION COMPOSITION” (Maruishi Pharmaceutical Co., Ltd., priority 2017, published 2020)
# Structures can show the parent of a compound that is named as a salt.
# Assay: Oil-water partition ratio
# Type: physicochemical
# Settings: 0.05% by mass aqueous solution vs oil phase soybean oil:MCT 1:1, 25° C.
# Procedure: 5 g of an oil phase (soybean oil:medium-chain fatty acid triglyceride=1:1) was added to 5 g of a 0.05% by mass aqueous levobupivacaine hydrochloride solution, and the mixture was stirred with a vortex mixer for 1 minute. After that, the whole was transferred to a centrifugation tube and centrifuged at 3600 rpm at 25° C. for 10 minutes, and the aqueous phase was separated. The levobupivacaine concentration of the aqueous phase was measured by HPLC, and the oil-water partition ratio was determined.
smiles,measurement,value
"CCCCN1CCCC[C@H]1C(=O)Nc1c(C)cccc1C [levobupivacaine hydrochloride, (2S)-1-butyl-N-(2,6-dimethylphenyl)piperidine-2-carboxamide]",proportion present in the aqueous phase (oil-water partition ratio),94.3%
